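96-well plates; 48 h exposure; 5 concentrations. Endpoints by linear interpolation between flanking doses. Not reached: highest tested concentration assigned. At the TGI there is no net growth.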
Assays:
Assay in all cases: NCI tumour cell line growth inhibition, 48 h
MDA-N = tested on: MDA-N
SF-268 CNS = tested on: SF-268 CNS
SK-MEL-28 melanoma = tested on: SK-MEL-28 melanoma
A498 renal = tested on: A498 renal
NCI/ADR-RES ovarian = tested on: NCI/ADR-RES ovarian
UACC-62 melanoma = tested on: UACC-62 melanoma
OVCAR-8 ovarian = tested on: OVCAR-8 ovarian
SK-OV-3 ovarian = tested on: SK-OV-3 ovarian
COLO 205 colon = tested on: COLO 205 colon
MALME-3M melanoma = tested on: MALME-3M melanoma
SN12C renal = tested on: SN12C renal

Compound | TGI (MDA-N) [µM] | TGI (SF-268 CNS) [µM] | TGI (SK-MEL-28 melanoma) [µM] | TGI (A498 renal) [µM] | TGI (NCI/ADR-RES ovarian) [µM] | TGI (UACC-62 melanoma) [µM] | TGI (OVCAR-8 ovarian) [µM] | TGI (SK-OV-3 ovarian) [µM] | TGI (COLO 205 colon) [µM] | TGI (MALME-3M melanoma) [µM] | TGI (SN12C renal) [µM]
O=C(NC(=S)Nc1ccc([N+](=O)[O-])cc1)c1ccc2c(c1)Sc1ccccc1O2 | > 100 | > 100 | > 100 | > 100 | > 100 | > 100 | > 100 | > 100 | > 100 | > 100 | > 100
CCOP(=O)(CCCC(O)CNc1nc(N)nc(Cl)c1N=Nc1ccc(Cl)cc1)OCC (stereo unspecified) | 18.8 | 18.1 | 20.8 | 20.7 | 31 | 19.1 | 22.9 | 19.2 | 20.4 | 20.9 | 18.2
Cc1ncc([N+](=O)[O-])n1CC[N+](C)([O-])CCCCn1ccnc1[N+](=O)[O-] (stereo unspecified) | > 100 | > 100 | > 100 | > 100 | > 100 | > 100 | > 100 | > 100 | > 100 | > 100 | > 100
COC(=O)Nc1nc2ccc(S(=O)(=O)Nc3ccccn3)cc2[nH]1 | > 100 | > 100 | 56.2 | > 100 | > 100 | > 100 | > 100 | > 100 | > 100 | > 100 | > 100
COc1cc(CC(C)=O)cc(OC)c1 | 76.9 | > 100 | > 100 | > 100 | > 100 | > 100 | > 100 | > 100 | > 100 | > 100 | > 100
COC(=O)CNC(=O)C(Cc1ccccc1)NC(=O)c1ccc(-c2ccc(Cl)cc2Cl)o1 (stereo unspecified) | 86.8 | 69.8 | > 100 | 38.8 | > 100 | 65.1 | > 100 | 84.2 | 30.2 | 87.4 | > 100
O=C(c1ccccc1)N1CCN(C(=S)NC2CCCCC2)C1=S | 42.8 | 42.5 | 31.2 | 43.3 | 43.6 | 35.6 | 32.9 | 65.6 | 34 | 32.1 | 40
CNC(=O)N(CCC#N)CCN(C(=O)NC)c1ccccc1 | > 100 | > 100 | > 100 | > 100 | > 100 | > 100 | > 100 | > 100 | > 100 | > 100 | > 100
Cc1ccc(S(=O)(=O)N2CCC[C@@H]2C(=O)O[C@@H]2CCC3CC=CC32)cc1 (stereo partly specified) | 78.6 | 75 | > 100 | 81.1 | 63.2 | > 100 | > 100 | 48.3 | 31.2 | 90 | > 100
CC(C)NC(=O)OCc1c(COC(=O)NC(C)C)c(-c2ccc[n+](COC(=O)Cc3ccccc3)c2)n2c1CCC2 | > 100 | 68 | > 100 | 44.7 | > 100 | 44.7 | > 100 | > 100 | > 100 | 97.2 | > 100
C=C(C)[C@@H](O)[C@H](O)C[C@H](C)C1CC[C@]2(C)C1=CC[C@@H]1[C@@]3(C)CC[C@@H](OC(C)=O)C(C)(C)[C@@H]3C[C@@H](OC3OC(COC(C)=O)C(O)C(O)C3O)[C@]12C (stereo partly specified) | 8.55 | 9.86 | 6.08 | 10.4 | 32 | 4.52 | 13.8 | 10.4 | 3.39 | 4.81 | 11.3

— PubChem BioAssay (NCI)
